Experimental data as given in patent US7365174B2, “Azalide and azalactam derivatives and method for producing the same” (Meiji Seika Kaisha, Ltd., priority 2003, dated 2008).
Values after ≈ are worked out from the molar mass of the structure shown. Like-named read-outs stand apart in the source and are kept apart here.

What was measured:
Test in all cases: Antibacterial activity test (agar dilution MIC)
Format in all cases: cell-based
[1] = system: Streptococcus pneumoniae TH-662; conditions: read-out: Minimum inhibitory concentration (MIC)
Experimental: (§1) In vitro antibacterial activities of the compounds of Examples 13, 28, 35, 43, 53 to 55, 64, 70, 84, 90, 94, 95, 108, 128, and 129 were measured as follows by referring to the standard method of the Japanese Society of Chemotherapy (Chemotherapy, Vol. 29, pp. 76-79, 1981). The antibacterial activity of midecamycin (MDM) was similarly measured for comparison.
(§2) Using each solution of the test substance prepared in methanol at a concentration of […], 2-fold serial dilutions were prepared by using methanol. Each of the prepared solutions of the test substances was put into a petri dish in a volume of 200 μl, added with 10 ml of agar medium for sensitivity measurement added with 5% horse sterile defibrinated blood, 15 μg/ml of β-nicotinamide-adenine dinucleotide, and 2.5 μg/ml of Hemin, and mixed for dilution to prepare an agar plate containing a test substance. A predetermined volume of a liquid medium for sensitivity measurement, prepared so as to contain a given number of test bactera, was inoculated on the agar plate containing a test substance by using a micro planter (Sakuma Seisakusho), and after the inoculation, the bacteria were cultured at 37° C. for about 20 hours. After the culture, presence or absence of growth of the test bacteria on the plate was observed by visual inspection, and the minimum concentration at which growth was not observed was determined as the minimum inhibitory concentration (MIC) of the test sustance.

[2] = system: Haemophilus influenzae 9334; conditions: read-out: Minimum inhibitory concentration (MIC)
Experimental: as §1, §2

[3] = system: Streptococcus pneumoniae IP692; conditions: read-out: Minimum inhibitory concentration (MIC)
Experimental: as §1, §2

[4] = system: Moraxella catarrhalis W-0506; conditions: read-out: Minimum inhibitory concentration (MIC)
Experimental: as §1, §2

[5] = system: Staphylococcus aureus 209P JC-1; conditions: read-out: Minimum inhibitory concentration (MIC)
Experimental: as §1, §2

[6] = system: Streptococcus pyogenes Cook; conditions: read-out: Minimum inhibitory concentration (MIC)
Experimental: as §1, §2

[7] = system: Streptococcus pneumoniae DP1 TypeI; conditions: DP1TYPEI, read-out: Minimum inhibitory concentration (MIC)
Experimental: as §1, §2

[8] = TH662, test bacterium D = Streptococcus pneumoniae TH-662, blood agar medium, 37° C., about 20 hours
[9] = test bacterium G = Haemophilus influenzae 9334, blood agar medium, 37° C., about 20 hours
[10] = test bacterium C = Streptococcus pneumoniae IP692, blood agar medium, 37° C., about 20 hours
[11] = W0506, test bacterium F = Moraxella catarrhalis W-0506, blood agar medium, 37° C., about 20 hours
[12] = test bacterium A = Staphylococcus aureus 209P JC-1, blood agar medium, 37° C., about 20 hours
[13] = test bacterium E = Streptococcus pyogenes Cook, blood agar medium, 37° C., about 20 hours
[14] = test bacterium B = Streptococcus pneumoniae DP1 TypeI, blood agar medium, 37° C., about 20 hours

**Q.** For CCC(=O)O[C@@H]1CC(=O)O[C@@H](C/C=C/c2cnc3ccccc3c2)CCCN(C)C[C@H](O)[C@H](C)C[C@H](CC=O)[C@H](O[C@@H]2OC(C)[C@@H](O[C@H]3CC(C)(O)[C@@H](OC(=O)CC)C(C)O3)C(N(C)C)C2O)[C@H]1OC (stereo partly shown) [Example 53], which MIC [1, 8] is on record?
**A.** 8 µg/mL (≈ 8.11 µM)

**Q.** And the MIC [2, 9]?
**A.** 2 µg/mL (≈ 2.03 µM)

**Q.** And the MIC [3, 10]?
**A.** 0.03 µg/mL (≈ 0.0304 µM)

**Q.** And the MIC [4, 11]?
**A.** 1 µg/mL (≈ 1.01 µM)

**Q.** What about the MIC [5, 12] of the same compound?
**A.** 0.5 µg/mL (≈ 0.507 µM)

**Q.** And the MIC [6, 13]?
**A.** 0.06 µg/mL (≈ 0.0608 µM)

**Q.** What about the MIC [7, 14] of the same compound?
**A.** 0.015 µg/mL (≈ 0.0152 µM)

**Q.** What does the source list for CCC(=O)O[C@@H]1CC(=O)O[C@@H](C/C=C/c2ccc3ccccc3c2)CCCN(C)C[C@H](O)[C@H](C)C[C@H](CC=O)[C@H](O[C@@H]2OC(C)[C@@H](O[C@H]3CC(C)(O)[C@@H](OC(=O)CC)C(C)O3)C(N(C)C)C2O)[C@H]1OC (stereo partly shown) [Example 84]?
**A.** MIC [1, 8]: 8 µg/mL (≈ 8.12 µM); MIC [2, 9]: 8 µg/mL (≈ 8.12 µM); MIC [3, 10]: 0.06 µg/mL (≈ 0.0609 µM); MIC [4, 11]: 2 µg/mL (≈ 2.03 µM); MIC [5, 12]: 0.5 µg/mL (≈ 0.507 µM); MIC [6, 13]: 0.25 µg/mL (≈ 0.254 µM); MIC [7, 14]: 0.06 µg/mL (≈ 0.0609 µM)

**Q.** CCC(=O)O[C@@H]1CC(=O)O[C@@H](C/C=C/c2cnc3ncccc3c2)CCCN(C)C[C@H](O)[C@H](C)C[C@H](CC=O)[C@H](O[C@@H]2OC(C)[C@@H](O[C@H]3CC(C)(OC(C)=O)[C@@H](OC(=O)CC)C(C)O3)C(N(C)C)C2O)[C@H]1OC (stereo partly shown) [Example 94] was tested. Which MIC [1, 8] did it give?
**A.** 0.5 µg/mL (≈ 0.486 µM)

**Q.** And the MIC [2, 9]?
**A.** 4 µg/mL (≈ 3.89 µM)

**Q.** And the MIC [3, 10]?
**A.** 0.03 µg/mL (≈ 0.0291 µM)

**Q.** And the MIC [4, 11]?
**A.** 1 µg/mL (≈ 0.972 µM)

**Q.** What about the MIC [5, 12] of the same compound?
**A.** 0.5 µg/mL (≈ 0.486 µM)

**Q.** And the MIC [6, 13]?
**A.** 0.06 µg/mL (≈ 0.0583 µM)

**Q.** What about the MIC [7, 14] of the same compound?
**A.** 0.015 µg/mL (≈ 0.0146 µM)

**Q.** Which MIC [1, 8] does the source give for CCC(=O)OC1C(C)O[C@@H](O[C@@H]2C(C)O[C@@H](O[C@H]3[C@@H](CC=O)C[C@@H](C)[C@@H](O)CN(CCCCc4ccccc4)CCCNC(=O)C[C@@H](OC(=O)CC)[C@@H]3OC)C(O)C2N(C)C)CC1(C)OC(C)=O (stereo partly shown) [Example 13] here?
**A.** 16 µg/mL (≈ 16.6 µM)

**Q.** And the MIC [2, 9]?
**A.** 0.5 µg/mL (≈ 0.519 µM)

**Q.** What about the MIC [3, 10] of the same compound?
**A.** 0.25 µg/mL (≈ 0.259 µM)

**Q.** What about the MIC [4, 11] of the same compound?
**A.** 0.25 µg/mL (≈ 0.259 µM)

**Q.** What about the MIC [5, 12] of the same compound?
**A.** 0.25 µg/mL (≈ 0.259 µM)

**Q.** What about the MIC [6, 13] of the same compound?
**A.** 0.25 µg/mL (≈ 0.259 µM)

**Q.** What about the MIC [7, 14] of the same compound?
**A.** 0.13 µg/mL (≈ 0.135 µM)

**Q.** Which results are given for CCC(=O)O[C@@H]1CC(=O)O[C@H](C)C/C=C/C=C/[C@H](O)[C@H](C)C[C@H](CC=O)[C@H](O[C@@H]2O[C@H](C)[C@@H](O[C@H]3C[C@@](C)(O)[C@@H](OC(=O)CC)[C@H](C)O3)[C@H](N(C)C)[C@H]2O)[C@H]1OC [MDM, midecamycin, reference compound]?
**A.** MIC ([1]; Streptococcus pneumoniae, TH662, 20 h): > 128 µg/mL; MIC ([2]; Haemophilus influenzae, 9334, 20 h): 2 µg/mL (≈ 2.46 µM); MIC ([3]; Streptococcus pneumoniae, IP692, 20 h): 0.5 µg/mL (≈ 0.614 µM); MIC ([4]; Moraxella catarrhalis, W0506, 20 h): 2 µg/mL (≈ 2.46 µM); MIC ([5]; Staphylococcus aureus, 209P, 20 h): 0.5 µg/mL (≈ 0.614 µM); MIC ([6]; Streptococcus pyogenes, 20 h): 0.25 µg/mL (≈ 0.307 µM); MIC ([7]; Streptococcus pneumoniae, 20 h): 0.25 µg/mL (≈ 0.307 µM)

**Q.** What does the source list for CCC(=O)O[C@@H]1CC(=O)O[C@@H](C/C=C/c2cnc3ccccc3c2)CCCN(C)C[C@H](O)[C@H](C)C[C@H](CC=O)[C@H](O[C@@H]2OC(C)[C@@H](O[C@H]3CC(C)(OC(C)=O)[C@@H](OC(=O)CC)C(C)O3)C(N(C)C)C2O)[C@H]1OC (stereo partly shown) [Example 90]?
**A.** MIC [1, 8]: 0.25 µg/mL (≈ 0.243 µM); MIC [2, 9]: 4 µg/mL (≈ 3.89 µM); MIC [3, 10]: 0.03 µg/mL (≈ 0.0292 µM); MIC [4, 11]: 1 µg/mL (≈ 0.973 µM); MIC [5, 12]: 0.25 µg/mL (≈ 0.243 µM); MIC [6, 13]: 0.03 µg/mL (≈ 0.0292 µM); MIC [7, 14]: 0.015 µg/mL (≈ 0.0146 µM)

**Q.** How did the MIC [1, 8] turn out when CCC(=O)O[C@@H]1CC(=O)OCCC(/C=C/Cc2ccnc3ccccc23)CN(C)C[C@H](O)[C@H](C)C[C@H](CC=O)[C@H](O[C@@H]2OC(C)[C@@H](O)C(N(C)C)C2O)[C@H]1OC (stereo partly shown) [Example 55] was run?
**A.** > 128 µg/mL

**Q.** And the MIC [3, 10]?
**A.** 0.03 µg/mL (≈ 0.0382 µM)

**Q.** What about the MIC [4, 11] of the same compound?
**A.** 0.25 µg/mL (≈ 0.318 µM)

**Q.** What about the MIC [5, 12] of the same compound?
**A.** 0.5 µg/mL (≈ 0.636 µM)

**Q.** And the MIC [6, 13]?
**A.** 0.06 µg/mL (≈ 0.0763 µM)

**Q.** What about the MIC [7, 14] of the same compound?
**A.** 0.03 µg/mL (≈ 0.0382 µM)

**Q.** Which MIC [1, 8] does the source give for CCC(=O)O[C@@H]1CC(=O)O[C@@H](C/C=C/c2cccc(-c3cccnc3)c2)CCCN(C)C[C@H](O)[C@H](C)C[C@H](CC=O)[C@H](O[C@@H]2OC(C)[C@@H](O[C@H]3CC(C)(OC(C)=O)[C@@H](OC(=O)CC)C(C)O3)C(N(C)C)C2O)[C@H]1OC (stereo partly shown) [Example 108] here?
**A.** 0.5 µg/mL (≈ 0.474 µM)

**Q.** And the MIC [2, 9]?
**A.** 8 µg/mL (≈ 7.59 µM)

**Q.** What about the MIC [3, 10] of the same compound?
**A.** 0.06 µg/mL (≈ 0.0569 µM)

**Q.** And the MIC [4, 11]?
**A.** 2 µg/mL (≈ 1.9 µM)

**Q.** What about the MIC [5, 12] of the same compound?
**A.** 0.5 µg/mL (≈ 0.474 µM)

**Q.** What about the MIC [6, 13] of the same compound?
**A.** 0.13 µg/mL (≈ 0.123 µM)

**Q.** And the MIC [7, 14]?
**A.** 0.03 µg/mL (≈ 0.0285 µM)
